“And” between values parts separate entries of the source, which are not always exact repeats. Identical values can stand only once.
How the values were obtained:
[1] = Stability of AST-2660 in human plasma at −20° C. and −70° C. for one month (LC-MS/MS); assay type: in vitro ADME
Description: The detection method established in example 4 was used to detect the content of AST-2660 in the human plasma to be tested.
Matrix: the mixed normal human plasma containing anticoagulant (K2 EDTA) • a: the internal standard working solution: AST-2660-D8 was taken, added with methanol, and diluted to prepare a solution containing about 100 ng per 1 ml. • b: the solution to be tested (no internal standard compound was added to the solution to be tested at this time): it was obtained by taking a blood sample to be tested. • c: the standard working solution (no internal standard compound was added to the standard working solution at this time): an appropriate amount of AST-2660 was taken and accurately weighed, dissolved with methanol, and diluted to prepare a solution containing about 1.0 mg per 1 ml, which was used as the standard working stock solution. An appropriate amount of the standard working stock solution was taken, added with the matrix and diluted to prepare standard working solutions with different concentrations containing about 200 ng, 160 ng, 100 ng, 50 ng, 10 ng, 2.0 ng, 1.0 ng and 0.5 ng per 1 ml, respectively. (The solution was stored at −70° C.) • d: the quality control sample solution: an appropriate amount of AST-2660 was taken and accurately weighed, dissolved with methanol, and diluted to prepare a solution containing about 10 μg per 1 ml, which was used as the quality control working stock solution. An appropriate amount of the quality control working stock solution was taken, added with matrix to prepare quality control working solutions with different concentrations containing about 150 ng, 60 ng, 15 ng, 1.5 ng and 0.5 ng per 1 ml. (The solution was stored at −70° C.)
The solution to be tested, the standard working solution and the quality control sample solution were thawed at room temperature and mixed uniformly. 100 μl of the above solution was respectively taken, added with 20 μl of the internal standard and 500 μl of methanol, and vortexed for 3 minutes to mix uniformly, and then centrifuged for 10 minutes at 2143 rcf. 450 μl of the supernatant was taken and dried, and 150 μl of methanol was added for redissolution, and sonicated. Then the plates were centrifuged for 3 minutes at 4° C. It was obtained by taking […] of supernatant.
Liquid phase conditions: A SHARC 1, 3 μm, 2.1*50 mm or chromatograph column with equivalent performance was used; the mobile phase was a methanol solution comprising low content of ammonium acetate; the mobile phase B was acetonitrile; the gradient elution was performed according to the following table, column temperature: 20° C.; injection volume: 5 μl.
Mass spectrometric conditions: electrospray ion source with negative ion scanning mode; spray potential: −4500 V; ion source temperature: 500° C.; collision energy (CE): −22 eV; declustering potential (DP): −55V; entrance potential (EP): −10V; collision chamber exit potential (CXP): −16V; dwell time: 100 ms; high purity nitrogen was used for all gases; AST-2660 ions pairs: m/z 147.0→m/z 62.9; the internal standard AST-2660-D8 ion pairs: m/z 155.0→m/z 62.9.
The AST-2660 standard working solution, blank sample, zero concentration sample, sample solution to be tested and quality control sample solution with different concentrations after extraction were respectively taken and injected into LC-MS/MS for detection.
(§1) Calculation results: the relationship function y=f (x) of the ratio of the peak area of the AST-2660 to that of the internal standard was obtained from AST-2660 standard working solutions with different concentrations. The ratio of the peak area of the AST-2660 to that of the internal standard was determined from the solution to be tested after extraction, and substituted into the relationship function y=f (x) to calculate the concentration of the metabolite II in the solution to be tested.

[2] = Stability of treated (extracted) human urine samples of AST-2660 at room temperature (LC-MS/MS); assay type: physicochemical; details: 94 hours at room temperature
Description: The detection method established in example 6 was used to detect the content of AST-2660 in the human urine to be tested.
Matrix: the mixed normal human urine containing an additive Na2HPO4·12H2O. • a: the internal standard working solution: AST-2660-D8 was taken, dissolved with methanol, and diluted to prepare a solution containing about 100 ng per 1 ml. • b: the solution to be tested (no internal standard compound was added to the solution to be tested at this time): it was obtained by taking a blood sample to be tested. • c: the standard working solution (no internal standard compound was added to the standard working solution at this time): an appropriate amount of AST-2660 was taken and accurately weighed, dissolved with methanol and diluted to prepare a solution containing about 1.0 mg per 1 ml, which was used as the standard working stock solution. […]
as §1, with “area of AST-2660 to” for “area of the AST-2660 to”

[3] = QC1 nominal 1.50 ng/ml, 28 days at −20° C.
[4] = QC1 nominal 1.50 ng/ml, 28 days at −70° C.
[5] = QC4 nominal 150 ng/ml, 28 days at −20° C.
[6] = QC4 nominal 150 ng/ml, 28 days at −70° C.

O=P([O-])(N1CC1)N1CC1.[Na+] [AST-2660]
change of AST-2660 content (in words) ([1]; 28 days of storage at −20° C.): reduced significantly | change of AST-2660 content (in words) ([1]; 28 days of storage at −70° C.): almost no reduction | RE (%) vs nominal ([1]; DilQC (10-fold dilution) nominal 1500 ng/ml, 28 days at −20° C.): −32.5% | RE (%) vs nominal ([1]; DilQC (10-fold dilution) nominal 1500 ng/ml, 28 days at −70° C.): −6.2% | AST-2660 concentration, Mean value [1, 3]: 1.11 ng/mL | AST-2660 concentration, single replicates [1, 3]: 1.01 ng/mL and 1.03 ng/mL and 1.14 ng/mL and 1.25 ng/mL | RE (%) vs nominal [1, 3]: −26.2% | AST-2660 concentration, Mean value [1, 4]: 1.53 ng/mL | AST-2660 concentration, single replicates [1, 4]: 1.52 ng/mL and 1.53 ng/mL and 1.59 ng/mL and 1.49 ng/mL | RE (%) vs nominal [1, 4]: 2.2% | AST-2660 concentration, Mean value [1, 5]: 146 ng/mL | AST-2660 concentration, single replicates [1, 5]: 147 ng/mL and 141 ng/mL and 149 ng/mL and 145 ng/mL | RE (%) vs nominal [1, 5]: −3.0% | AST-2660 concentration, Mean value [1, 6]: 145 ng/mL | AST-2660 concentration, single replicates [1, 6]: 142 ng/ml (2×) and 150 ng/ml and 145 ng/ml | RE (%) vs nominal [1, 6]: −3.5% | stability (in words) [2]: stable

— patent publication US20240140970A1, “A […], AND PREPARATION METHOD AND USE THEREOF” (ASCENTAWITS PHARMACEUTICALS, LTD., priority 2021, published 2024)
